Source: patent US20080234262A1 (Wyeth, priority 2007, published 2008)

Legend:
breast line MDA468 = assay: In vitro cell culture growth assay (MTS), MDA468; type: cell-based, human; conditions: MDA468 cells, three days after drug treatment
Outline: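 MDA468 or LNCap cells received inhibitors one day after plating and were grown for three days. Viable cell density read by MTS conversion, absorbance 490 nm, expressed as percent of control growth versus vehicle-treated cells on the same plate.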

prostate line LNCap = assay: In vitro cell culture growth assay (MTS), LNCap; type: cell-based, human; conditions: LNCap cells, three days after drug treatment
PI3K = PI3K (Homo sapiens, UniProt P42336); assay: Fluorescence polarization assay for PI3K; type: biochemical; conditions: PI3Kα; read-out: PI3Kα IC50;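 further: PI3K kinase reaction on PIP2 with ATP, 30-60 min, product sensed by GST-GRP with red probe in fluorescence polarization (mP), controls without enzyme and at zero time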
Chain of PI3K (P42336 whole entry): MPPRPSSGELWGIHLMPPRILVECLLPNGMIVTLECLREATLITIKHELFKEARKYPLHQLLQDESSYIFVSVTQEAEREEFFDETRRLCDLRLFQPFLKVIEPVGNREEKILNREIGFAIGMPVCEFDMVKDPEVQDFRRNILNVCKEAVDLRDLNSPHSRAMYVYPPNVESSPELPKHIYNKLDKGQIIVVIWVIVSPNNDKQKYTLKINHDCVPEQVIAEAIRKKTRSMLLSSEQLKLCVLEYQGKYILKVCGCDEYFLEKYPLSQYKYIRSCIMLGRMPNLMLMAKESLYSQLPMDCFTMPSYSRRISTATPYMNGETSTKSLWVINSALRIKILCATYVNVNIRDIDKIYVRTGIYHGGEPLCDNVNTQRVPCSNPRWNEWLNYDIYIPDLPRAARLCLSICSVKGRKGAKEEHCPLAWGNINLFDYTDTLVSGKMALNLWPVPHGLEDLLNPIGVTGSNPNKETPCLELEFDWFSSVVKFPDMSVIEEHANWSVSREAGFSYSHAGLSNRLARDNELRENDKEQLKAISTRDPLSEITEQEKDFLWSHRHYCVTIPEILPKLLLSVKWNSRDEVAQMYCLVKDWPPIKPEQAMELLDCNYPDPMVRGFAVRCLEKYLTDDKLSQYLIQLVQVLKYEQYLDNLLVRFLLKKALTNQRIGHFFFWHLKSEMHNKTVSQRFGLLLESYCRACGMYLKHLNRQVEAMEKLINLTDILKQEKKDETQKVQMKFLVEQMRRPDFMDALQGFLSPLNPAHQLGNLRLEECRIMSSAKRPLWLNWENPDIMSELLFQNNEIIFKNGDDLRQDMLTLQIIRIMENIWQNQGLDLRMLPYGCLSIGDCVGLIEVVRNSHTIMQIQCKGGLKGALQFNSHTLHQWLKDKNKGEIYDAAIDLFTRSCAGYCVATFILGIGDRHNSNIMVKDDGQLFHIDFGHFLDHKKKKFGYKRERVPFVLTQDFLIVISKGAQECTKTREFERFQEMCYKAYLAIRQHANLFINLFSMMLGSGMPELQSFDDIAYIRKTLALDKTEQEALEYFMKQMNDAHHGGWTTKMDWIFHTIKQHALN
Chain of PI3K (P27986 whole entry partner): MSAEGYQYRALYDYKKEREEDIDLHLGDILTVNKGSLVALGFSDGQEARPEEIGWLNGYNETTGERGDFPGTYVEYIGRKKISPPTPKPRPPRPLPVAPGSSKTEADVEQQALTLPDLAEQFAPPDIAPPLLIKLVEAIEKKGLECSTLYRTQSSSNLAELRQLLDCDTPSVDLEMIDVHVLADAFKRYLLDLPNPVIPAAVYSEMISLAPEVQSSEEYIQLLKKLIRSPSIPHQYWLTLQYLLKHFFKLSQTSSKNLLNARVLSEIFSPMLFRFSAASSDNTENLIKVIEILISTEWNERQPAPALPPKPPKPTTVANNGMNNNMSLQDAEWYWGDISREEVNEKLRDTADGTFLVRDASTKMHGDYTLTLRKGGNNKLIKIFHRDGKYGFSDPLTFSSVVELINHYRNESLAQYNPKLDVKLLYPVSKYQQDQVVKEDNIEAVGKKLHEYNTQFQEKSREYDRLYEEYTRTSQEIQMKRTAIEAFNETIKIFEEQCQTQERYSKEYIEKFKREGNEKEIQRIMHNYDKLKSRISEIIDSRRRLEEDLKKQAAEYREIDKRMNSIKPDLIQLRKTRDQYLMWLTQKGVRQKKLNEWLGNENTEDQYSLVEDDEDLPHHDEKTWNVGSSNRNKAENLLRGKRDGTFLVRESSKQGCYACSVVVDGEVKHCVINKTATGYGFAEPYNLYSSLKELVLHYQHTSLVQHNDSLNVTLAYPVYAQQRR

Row | Molecule | IC50 (breast line MDA468; Homo sapiens, 72 h) [nM] | IC50 (prostate line LNCap; Homo sapiens, LNCaP, 72 h) [nM] | IC50 (PI3K) [nM] | IC50 (breast line MDA468) [nM] | IC50 (prostate line LNCap) [nM]
1 | CCOC(=O)N1CCC(n2ncc3c(N4CCOCC4)nc(-c4ccc(NC(=O)NC)cc4)nc32)CC1 [Compound 750, ethyl 4-(6-{4-[(methylcarbamoyl)amino]phenyl}-4-morpholin-4-yl-1H-pyrazolo[3,4-d]pyrimidin-1-yl)piperidine-1-carboxylate] | 80 | 33 | 221 | – | –
2 | CCNC(=O)Nc1ccc(-c2nc(N3CCOC(C)C3)c3cnn(C4CCN(C(=O)OC)CC4)c3n2)cc1 (stereo not drawn) [Compound 842, methyl 4-[6-{4-[(ethylcarbamoyl)amino]phenyl}-4-(2-methylmorpholin-4-yl)-1H-pyrazolo[3,4-d]pyrimidin-1-yl]piperidine-1-carboxylate] | 1000 | 70 | 721 | – | –
3 | Cc1ccncc1C(=O)N1CCC(n2ncc3c(N4CCOCC4)nc(-c4ccc5[nH]ccc5c4)nc32)CC1 [Example 199, 6-(1H-indol-5-yl)-1-{1-[(4-methylpyridin-3-yl)carbonyl]piperidin-4-yl}-4-morpholin-4-yl-1H-pyrazolo[3,4-d]pyrimidine] | 1800 | 450 | 2940 | – | –
4 | CNC(=O)Nc1ccc(-c2nc(N3CCOCC3)c3cnn(C4CCN(C(=O)c5ccc(Br)cc5)CC4)c3n2)cc1 [Compound 606, 1-(4-{1-[1-(4-bromobenzoyl)piperidin-4-yl]-4-morpholin-4-yl-1H-pyrazolo[3,4-d]pyrimidin-6-yl}phenyl)-3-methylurea] | 180 | 52 | 34 | – | –
5 | CNC(=O)Nc1ccc(-c2nc(N3CCOCC3)c3cnn(C4CCN(C(=O)c5ccc(Cl)cc5)CC4)c3n2)cc1 [Example 362, 1-(4-{1-[1-(4-chlorobenzoyl)piperidin-4-yl]-4-morpholin-4-yl-1H-pyrazolo[3,4-d]pyrimidin-6-yl}phenyl)-3-methylurea] | 400 | 52 | 42 | – | –
6 | CNC(=O)Nc1ccc(-c2nc(N3CCOCC3)c3cnn(C4CCN(C(=O)c5cnccn5)CC4)c3n2)cc1 [Example 422, 1-methyl-3-(4-{4-morpholin-4-yl-1-[1-(pyrazin-2-ylcarbonyl)piperidin-4-yl]-1H-pyrazolo[3,4-d]pyrimidin-6-yl}phenyl)urea] | 400 | 320 | 198 | – | –
7 | COc1ccc(NC2CCC(n3ncc4c(N5CCOCC5)nc(-c5ccc6[nH]ccc6c5)nc43)CC2)cc1 (stereo not drawn) [Compound 153] | 6500 | 2000 | 460 | – | –
8 | O=C(Nc1ccc(-c2nc(N3CCOCC3)c3cnn(C4CCN(C(=O)c5cccnc5)CC4)c3n2)cc1)Nc1ccccn1 [Example 345, 1-(4-{4-morpholin-4-yl-1-[1-(pyridin-3-ylcarbonyl)piperidin-4-yl]-1H-pyrazolo[3,4-d]pyrimidin-6-yl}phenyl)-3-pyridin-2-ylurea] | 700 | 95 | 261 | – | –
9 | CNC(=O)Nc1ccc(-c2nc(N3C[C@@H](C)O[C@@H](C)C3)c3cnn(C4CCN(Cc5cccnc5)CC4)c3n2)cc1 [Compound 941, 1-(4-{4-[(2R,6S)-2,6-dimethylmorpholin-4-yl]-1-[1-(pyridin-3-ylmethyl)piperidin-4-yl]-1H-pyrazolo[3,4-d]pyrimidin-6-yl}phenyl)-3-methylurea] | 9000 | 2000 | 3880 | – | –
10 | CN(C)CCCn1ncc2c(N3CCOCC3)nc(-c3ccc4[nH]ccc4c3)nc21 [Compound 160] | 15000 | 2800 | 6000 | – | –
11 | COCCCNC(=O)Nc1ccc(-c2nc(N3CCOCC3)c3cnn(C4CCN(Cc5ccccc5)CC4)c3n2)cc1 [Compound 515, 1-{4-[1-(1-benzylpiperidin-4-yl)-4-morpholin-4-yl-1H-pyrazolo[3,4-d]pyrimidin-6-yl]phenyl}-3-(3-methoxypropyl)urea] | 3200 | 600 | 753 | – | –
12 | CNC(=O)Nc1ccc(-c2nc(N3CCOCC3)c3cnn(C4CCN(Cc5cccnc5Cl)CC4)c3n2)cc1 [Example 390, 1-[4-(1-{1-[(2-chloropyridin-3-yl)methyl]piperidin-4-yl}-4-morpholin-4-yl-1H-pyrazolo[3,4-d]pyrimidin-6-yl)phenyl]-3-methylurea] | 100 | 45 | 90 | – | –
13 | CN1CCC(C(=O)Nc2ccc(-c3nc(N4CCOCC4)c4cn[nH]c4n3)cc2)CC1 [Compound 284, 1-methyl-N-[4-(4-morpholin-4-yl-1H-pyrazolo[3,4-d]pyrimidin-6-yl)phenyl]piperidine-4-carboxamide] | 22000 | 5300 | 885 | – | –
14 | NC(=O)Nc1ccc(-c2nc(N3CCOCC3)c3cnn(C4CCN(C(=O)c5cccnc5)CC4)c3n2)cc1 [Compound 546, 1-(4-{4-morpholin-4-yl-1-[1-(pyridin-3-ylcarbonyl)piperidin-4-yl]-1H-pyrazolo[3,4-d]pyrimidin-6-yl}phenyl)urea] | 1800 | 3000 | 178 | – | –
15 | CNC(=O)Nc1ccc(-c2nc(N3CCOCC3)c3cnn(C4CCNCC4)c3n2)cc1 [Example 338, 1-methyl-3-[4-(4-morpholin-4-yl-1-piperidin-4-yl-1H-pyrazolo[3,4-d]pyrimidin-6-yl)phenyl]urea] | 1300 | 500 | 23 | – | –
16 | COc1ccc(-c2nc(N3CCOCC3)c3cnn(-c4ccccc4)c3n2)cn1 [Example 4] | 38000 | 20000 | 5500 | – | –
17 | NNC(=O)Nc1ccc(-c2nc(N3CCOCC3)c3cnn(C4CCN(Cc5ccccc5)CC4)c3n2)cc1 [Example 309, N-{4-[1-(1-benzylpiperidin-4-yl)-4-morpholin-4-yl-1H-pyrazolo[3,4-d]pyrimidin-6-yl]phenyl}hydrazinecarboxamide] | 7500 | 900 | 155 | – | –
18 | CNC(=O)Nc1ccc(-c2nc(N3CCOCC3)c3cn[nH]c3n2)cc1Cl [Compound 940, 1-[2-chloro-4-(4-morpholin-4-yl-1H-pyrazolo[3,4-d]pyrimidin-6-yl)phenyl]-3-methylurea] | 6000 | 1950 | 401 | – | –
19 | NCCNC(=O)Nc1ccc(-c2nc(N3CCOCC3)c3cnn(C4CCN(Cc5ccccc5)CC4)c3n2)cc1 [Example 267, 1-(2-aminoethyl)-3-{4-[1-(1-benzylpiperidin-4-yl)-4-morpholin-4-yl-1H-pyrazolo[3,4-d]pyrimidin-6-yl]phenyl}urea] | 2700 | 2000 | 14 | – | –
20 | O=C(NCCF)Nc1ccc(-c2nc(N3CCOCC3)c3cnn(-c4ccccc4)c3n2)cc1 [Example 294, 1-(2-fluoroethyl)-3-[4-(4-morpholin-4-yl-1-phenyl-1H-pyrazolo[3,4-d]pyrimidin-6-yl)phenyl]urea] | 900 | 190 | 251 | – | –
21 | CCNC(=O)Nc1ccc(-c2nc(N3CCOCC3)c3cnn(C4CCN(C(=O)C(C)C)CC4)c3n2)cc1 [Compound 822, 1-ethyl-3-{4-[1-(1-isobutyrylpiperidin-4-yl)-4-morpholin-4-yl-1H-pyrazolo[3,4-d]pyrimidin-6-yl]phenyl}urea] | 500 | 120 | 1230 | – | –
22 | CNC(=O)Nc1ccc(-c2nc(N3CCOCC3)c3cnn(C4CCN(Cc5ccc(C)cc5)CC4)c3n2)cc1 [Example 431, 1-methyl-3-(4-{1-[1-(4-methylbenzyl)piperidin-4-yl]-4-morpholin-4-yl-1H-pyrazolo[3,4-d]pyrimidin-6-yl}phenyl)urea] | 100 | 27 | 25 | – | –
23 | O=C(Nc1ccc(-c2nc(N3CCOCC3)c3cnn(C4CCN(C(=O)OCc5ccccc5)CC4)c3n2)cc1)Nc1cccnc1 [Compound 881, benzyl 4-(4-morpholin-4-yl-6-{4-[(pyridin-3-ylcarbamoyl)amino]phenyl}-1H-pyrazolo[3,4-d]pyrimidin-1-yl)piperidine-1-carboxylate] | 300 | 60 | 7 | – | –
24 | c1ccc(CN2CCC(n3ncc4c(N5CCOCC5)nc(-c5ccn[nH]5)nc43)CC2)cc1 [Compound 188] | 19000 | 7000 | 3000 | – | –
25 | methyl [4-(1-{1-[(6-fluoropyridin-3-yl)methyl]piperidin-4-yl}-4-morpholin-4-yl-1H-pyrazolo[3,4-d]pyrimidin-6-yl) phenyl]carbamate [Compound 453] | – | – | 1200 | 6000 | 900
26 | COC(=O)Nc1ccc(-c2nc(N3CCOCC3)c3cnn(C4CCN(C(=O)C(F)(F)F)CC4)c3n2)cc1 [Compound 811, methyl (4-{4-morpholin-4-yl-1-[1-(trifluoroacetyl)piperidin-4-yl]-1H-pyrazolo[3,4-d]pyrimidin-6-yl}phenyl)carbamate] | 4600 | 1900 | 1350 | – | –
27 | c1ccc(CN2CCC(n3ncc4c(N5CCOCC5)nc(-c5ccc6[nH]ccc6c5)nc43)CC2)cc1 [Example 45] | 1900 | 1400 | 1010 | – | –
28 | CN(C)S(=O)(=O)c1ccc(-c2nc(N3CCOCC3)c3cnn(C4CCN(Cc5ccccc5)CC4)c3n2)cc1 [Compound 87] | 60000 | 23000 | 780 | – | –
29 | COC(=O)Nc1ccc(-c2nc(N3CCOCC3)c3cnn(C4CCN(Cc5ccc(F)cc5)CC4)c3n2)cc1 [Compound 450, methyl (4-{1-[1-(4-fluorobenzyl)piperidin-4-yl]-4-morpholin-4-yl-1H-pyrazolo[3,4-d]pyrimidin-6-yl}phenyl)carbamate] | 2600 | 1200 | 750 | – | –
